Measurements from patent US4345938A, “Herbicidal 2-haloacetanilides” (Monsanto Company, priority 1980, dated 1982).
Where two headings read alike, the source gives them in different places.

Columns and labels:
Assay type in all cases: in vivo
Monochoria vaginalis = assay: Greenhouse transplant rice test, MV; conditions: Pontederia vaginalis, about 3 WAT, read-out: Percent Inhibition, MV
Description: The test procedure used in this greenhouse test is as follows: Ray silt loam top soil containing about 0.05% by weight of krillium and sifted through a […] screen is fumigated about 5-10 days prior to use. Pots are then filled with said Ray silt loam soil to a level to allow for a 1 in. (2.54 cm) flooding depth. Rice plants (Bluebelle) of 2 to 3 weeks age are transplanted to the pots and bulbs or seeds of the test weeds also planted in the pots. The pots are then flooded and the test chemical applied to the surface of the flood water. The flood water is reduced to allow for germination of the Echinochloa crus-galli (barnyardgrass) seed and subsequently reflooded and maintained in that condition. Observations of percent inhibition using a scale of 0-100% are made about 3 weeks after transplant (WAT).
(§1) The test data in Table III for all compounds was obtained under identical test conditions. The weeds used in the tests herein have the following abbreviations in the tables: Echinochloa crus-galli (EC), Monochloria vaginalis (MV), Cyperus Serotinus (CS), Eleocharis Kuroguwai (EK) and Sagittaria trifolia (ST).

Soybean = assay: Pre-emergent herbicidal test, Soybean; conditions: Table II; further: ranges in brackets are in %
Description: (§2) A good grade of top soil is placed in aluminum pans and compacted to a depth of three-eights to one-half inch from the top of the pan. On the top of the soil is placed a number of seeds or vegetative propagules of various plant species. The soil required to level fill the pans after seeding or adding vegetative propagules is weighted into a pan. The soil and a known amount of the active ingredient applied in a solvent or as a wettable powder suspension are thoroughly mixed, and used to cover the prepared pans. After treatment, the pans are moved into a greenhouse bench where they are watered by subirrigation as needed to give adequate moisture for germination and growth.
(§3) Approximately 2 weeks after seeding and treating, the plants were observed and the results recorded. The herbicidal rating was obtained by means of a fixed scale based on the percent injury of each plant species. The ratings are defined as follows: […]
(§4) The compounds were further tested by utilizing the above procedure on the following plant species: […]

Eleocharis kuroguwai = assay: Field transplant rice test, applied 0 DAT, EK; conditions: 0 h, read-out: Percent Inhibition, EK; for inhibition at 375 g/ha: 0.375 Kg/Ha; for inhibition at 750 g/ha: 0.75 Kg/Ha; for inhibition at 1500 g/ha: 1.5 Kg/Ha; for inhibition at 3000 g/ha: 3.0 Kg/Ha
Method: as §1
(§5) In further comparative tests, a preferred compound of this invention (Example 1) was tested in the field with prior art Compounds A-D. These tests were conducted under conditions reflecting herbicide application times generally favorable to all herbicides in the test. The timing of application of herbicides to transplant rice is very important, whether, as in some instances, prior to transplanting the rice; in other instances, at the time of transplanting or else after transplanting. Application times are conventionally referred to as "days before transplant" (DBT) or "days after transplant" ("DAT"). The field test data in Table IV was obtained from a test in which the herbicides were applied at the time of transplant, i.e., "0 DAT", with observations being made weekly up to six weeks after transplant ("WAT") beginning at two weeks after transplant; for illustrative and representative purposes, only the early, middle and late period observations, i.e., 2 WAT, 4 WAT and 6 WAT, are shown in Table IV. The data in Table IV is for rates of application common to all herbicides in the test, i.e., from 3.0 kg/ha (2.67 lb/A) down to 0.375 kg/ha (0.34 lb/A). All herbicides were applied at their actual or expected use rates, i.e., as granules containing 2.5% by weight herbicide for the compound of Example 1, Compounds B, C and D and 5.0% by weight for Compound A.

Echinochloa crus-galli = assay: Field transplant rice test, applied 0 DAT, EC; conditions: 0 h, read-out: Percent Inhibition, EC; for inhibition at 375 g/ha: 0.375 Kg/Ha; for inhibition at 750 g/ha: 0.75 Kg/Ha; for inhibition at 1500 g/ha: 1.5 Kg/Ha; for inhibition at 3000 g/ha: 3.0 Kg/Ha
Method: as §1, §5

Hemp Sesbania = assay: Pre-emergent herbicidal test, Hemp Sesbania; conditions: Table II; further: ranges in brackets are in %
Description: as §2, §3, §4

Yellow Nutsedge = assay: Pre-emergent herbicidal test, Yellow Nutsedge; conditions: Table I; further: ranges in brackets are in %
Description: as §2, §3

Rice = assay: Pre-emergent herbicidal test, Rice; conditions: Table II; further: ranges in brackets are in %
Description: as §2, §3, §4

Panicum Spp. = assay: Pre-emergent herbicidal test, Panicum Spp.; further: ranges in brackets are in %; conditions: Table II
Description: as §2, §3, §4

Wheat = assay: Pre-emergent herbicidal test, Wheat; conditions: Table II; further: ranges in brackets are in %
Description: as §2, §3, §4

Morningglory = assay: Pre-emergent herbicidal test, Morningglory; further: ranges in brackets are in %
Description: as §2, §3

SMILES: CCCCOc1cccc(CC)c1N(C)C(=O)CCl [Example 1, N-methyl-2'-n-butoxy-6'-ethyl-2-chloroacetanilide]
- inhibition at 280 g/ha (Monochoria vaginalis; 0.28 Kg/Ha): 100%
- inhibition at 560 g/ha (Monochoria vaginalis; 0.56 Kg/Ha): 100%
- inhibition at 1120 g/ha (Monochoria vaginalis; 1.12 Kg/Ha): 100%
- inhibition at 2240 g/ha (Monochoria vaginalis; 2.24 Kg/Ha): 100%
- Rating, Soybean (Soybean; 0.006 kg/h): 0 (0-24)
- Rating, Soybean (Soybean; 0.01 kg/h): 0 (0-24)
- Rating, Soybean (Soybean; 0.06 kg/h): 0 (0-24)
- Rating, Soybean (Soybean; 0.28 kg/h): 0 (0-24)
- Rating, Soybean (Soybean; 1.12 kg/h): 0 (0-24)
- Rating, Soybean (Soybean; 5.6 kg/h): 1 (25-49)
- inhibition at 375 g/ha (Eleocharis kuroguwai; 2 WAT): 73%
- inhibition at 375 g/ha (Eleocharis kuroguwai; 4 WAT): 40%
- inhibition at 375 g/ha (Eleocharis kuroguwai; 6 WAT): 3%
- inhibition at 750 g/ha (Eleocharis kuroguwai; 2 WAT): 82%
- inhibition at 750 g/ha (Eleocharis kuroguwai; 4 WAT): 75%
- inhibition at 750 g/ha (Eleocharis kuroguwai; 6 WAT): 50%
- inhibition at 1500 g/ha (Eleocharis kuroguwai; 2 WAT): 87%
- inhibition at 1500 g/ha (Eleocharis kuroguwai; 4 WAT): 83%
- inhibition at 1500 g/ha (Eleocharis kuroguwai; 6 WAT): 37%
- inhibition at 3000 g/ha (Eleocharis kuroguwai; 2 WAT): 97%
- inhibition at 3000 g/ha (Eleocharis kuroguwai; 4 WAT): 92%
- inhibition at 3000 g/ha (Eleocharis kuroguwai; 6 WAT): 65%
- inhibition at 375 g/ha (Echinochloa crus-galli; 2 WAT): 97%
- inhibition at 375 g/ha (Echinochloa crus-galli; 4 WAT): 100%
- inhibition at 375 g/ha (Echinochloa crus-galli; 6 WAT): 100%
- inhibition at 750 g/ha (Echinochloa crus-galli; 2 WAT): 98%
- inhibition at 750 g/ha (Echinochloa crus-galli; 4 WAT): 100%
- inhibition at 750 g/ha (Echinochloa crus-galli; 6 WAT): 98%
- inhibition at 1500 g/ha (Echinochloa crus-galli; 2 WAT): 100%
- inhibition at 1500 g/ha (Echinochloa crus-galli; 4 WAT): 100%
- inhibition at 1500 g/ha (Echinochloa crus-galli; 6 WAT): 100%
- inhibition at 3000 g/ha (Echinochloa crus-galli; 2 WAT): 98%
- inhibition at 3000 g/ha (Echinochloa crus-galli; 4 WAT): 100%
- inhibition at 3000 g/ha (Echinochloa crus-galli; 6 WAT): 100%
- Rating, Hemp Sesbania (Hemp Sesbania; 0.006 kg/h): 2 (50-74)
- Rating, Hemp Sesbania (Hemp Sesbania; 0.01 kg/h): 2 (50-74)
- Rating, Hemp Sesbania (Hemp Sesbania; 0.06 kg/h): 3 (75-100)
- Rating, Hemp Sesbania (Hemp Sesbania; 0.28 kg/h): 3 (75-100)
- Rating, Hemp Sesbania (Hemp Sesbania; 1.12 kg/h): 3 (75-100)
- Rating, Hemp Sesbania (Hemp Sesbania; 5.6 kg/h): 3 (75-100)
- Rating, Yellow Nutsedge (Yellow Nutsedge; 5.6 kg/h): 3 (75-100)
- Rating, Yellow Nutsedge (Yellow Nutsedge; 11.2 kg/h): 3 (75-100)
- Rating, Rice (Rice; 0.006 kg/h): 1 (25-49)
- Rating, Rice (Rice; 0.01 kg/h): 1 (25-49)
- Rating, Rice (Rice; 0.06 kg/h): 1 (25-49)
- Rating, Rice (Rice; 0.28 kg/h): 3 (75-100)
- Rating, Rice (Rice; 1.12 kg/h): 3 (75-100)
- Rating, Rice (Rice; 5.6 kg/h): 3 (75-100)
- Rating, Panicum Spp. (Panicum Spp.; 0.006 kg/h): 0 (0-24)
- Rating, Panicum Spp. (Panicum Spp.; 0.01 kg/h): 1 (25-49)
- Rating, Panicum Spp. (Panicum Spp.; 0.06 kg/h): 3 (75-100)
- Rating, Panicum Spp. (Panicum Spp.; 0.28 kg/h): 3 (75-100)
- Rating, Panicum Spp. (Panicum Spp.; 1.12 kg/h): 3 (75-100)
- Rating, Panicum Spp. (Panicum Spp.; 5.6 kg/h): 3 (75-100)
- Rating, Wheat (Wheat; 0.006 kg/h): 0 (0-24)
- Rating, Wheat (Wheat; 0.01 kg/h): 0 (0-24)
- Rating, Wheat (Wheat; 0.06 kg/h): 1 (25-49)
- Rating, Wheat (Wheat; 0.28 kg/h): 2 (50-74)
- Rating, Wheat (Wheat; 1.12 kg/h): 2 (50-74)
- Rating, Wheat (Wheat; 5.6 kg/h): 3 (75-100)
- Rating, Morningglory (Morningglory; Table I, 5.6 kg/h): 2 (50-74)
- Rating, Morningglory (Morningglory; Table I, 11.2 kg/h): 1 (25-49)
- Rating, Morningglory (Morningglory; Table II, 0.006 kg/h): 0 (0-24)
- Rating, Morningglory (Morningglory; Table II, 0.06 kg/h): 0 (0-24)
- Rating, Morningglory (Morningglory; Table II, 0.28 kg/h): 0 (0-24)
- Rating, Morningglory (Morningglory; Table II, 1.12 kg/h): 2 (50-74)
- Rating, Morningglory (Morningglory; Table II, 5.6 kg/h): 3 (75-100)
